Results as given in publication PMC12349723, “Computationally accelerated identification of P-glycoprotein inhibitors” (PLOS One, 2025).

The molecules below were run on DU145-TXR cells (assay: MTT viability assay, reversal of MDR (re-sensitization to paclitaxel) in P-gp overexpressing DU145-TXR cells). Conditions: 15 µM compound + 500 nM PTX (Paclitaxel, Taxol); DU145-TXR; trial 2, sample 2.
Format: cell-based, human
Experimental: The chemotherapeutic sensitive DU145 human prostate cancer cells and the multidrug resistant sub-line, DU145-TXR, were generous gifts from Dr. Evan Keller (University of Michigan, Ann Arbor, MI). The MDR, P-gp overexpressing DU145-TXR cells were maintained under positive selection pressure by supplementing complete medium with 10 nM paclitaxel (Acros Organics, NJ). In addition to the aforementioned cell lines, the chemotherapeutic sensitive A2780 ovarian cancer cells (93112519, Sigma) and the multidrug resistant A2780-ADR (93112520, Sigma) were maintained in complete RPMI media consisting of RPMI-1640 with L-glutamine, 10% fetal bovine serum (FBS; Corning), 100 U/mL penicillin and 100 μg/mL streptomycin in a humidified incubator at 37 °C and 5% CO2. The MDR, P-gp overexpressing A2780-ADR cell line was maintained under positive selection pressure by supplementing complete medium with 100 nM doxorubicin (Fisher Scientific, NJ). The non-cancerous HFL1 (human lung fibroblast) cell line cell line was a generous gift from Dr. Robert Harrod (Southern Methodist University, Dallas, TX) and was maintained in complete F12K media consisting of F12K with 10% fetal bovine serum, 100 U/mL penicillin, and 100 µg/mL streptomycin (Gibco). Flasks and 96 well plates that were used with the non-cancerous line HFL1 were pre-treated with 0.1 mg/ml Collagen Type 1 (Gibco) and rinsed with PBS (Fisher).
Culture of the DU145, DU145-TXR, and HFL1 cell lines was performed as described in [8]. Culture of the A2780 and A2780-ADR cell lines was performed as described in [9]. MTT assays were performed as described in [8] with minor modifications. LC-MS/MS accumulation assays were performed as described in {Nanayakkara, 2018 #173} [9] with some modifications. […] The inhibitor concentration was lowered to 15 µM here, as the goal of the study was to identify compounds that were effective in reversing MDR at low concentrations, and to determine if the expanded virtual-assisted methods improved on our first-draft attempt. Compounds 56–98 were pre-screened using Resazurin cell viability assays: cells were incubated with 15 µM compound with or without 500 nM PTX for 48 hours, after which cell survival was assessed similar to [39]. Data represent the mean of two separate experiments, with n = 3 samples per experiment (n = 6 total) (S4 Table). The top performing compounds from this initial screen were re-tested with MTT viability assays against DU145-TXR cells, as described below.
MTT assays measure the reduction of yellow, water soluble 3-(4,5-dimethylthiazol-2-yl)-2,5-diphenyltetrazolium bromide (MTT) to blue, insoluble formazan crystals by cellular reductase processes in living cells. Cells were trypsinized from monolayers and seeded in complete medium in 96 well plates. Cancerous cell lines (DU145, DU145-TXR, A2780, A2780-ADR) were seeded at 3,000 cells per well in complete RPMI medium. The non-cancerous HFL1 line was seeded at 4,000 cells per well in complete F12K medium, in collagen-treated plates (Collagen Type 1, Gibco). Cells were incubated with experimental compounds for 48 hours at 37 °C and 5% CO2 in a humidified incubator. At 48 hours, MTT was added (20 µL/well of 5 mg/mL MTT in PBS) to each well. After incubation for 4 hours, the media was removed, and the formazan crystals were dissolved in 100 µL DMSO per well. Plates containing the semi-adherent A2780 or A2780-ADR lines were spun at 1400 rpm for 3 minutes prior to aspiration of media, and the addition of DMSO. Plates were shaken for 10 minutes at 500 rpm on an Orbital shaker (LabDoctor from MidSci, St Louis, MO). The absorbance was measured at 570 nm using a Bio-Tek Cytation 5 (Bio-Tek, Winooski, VT). The measured absorbance value was correlated with the number of metabolically active cells in that well, corrected for absorbance of media. […]

Question: `O=S(=O)(Cc1nc2ccccc2n1CC(O)c1ccc(Cl)cc1)c1ccccc1` (stereo not shown) [Compound 97, OC(Cn1c(CS(=O)(=O)c2ccccc2)nc2ccccc12)c1ccc(Cl)cc1] was tested. Which “% Survival” value did it give?
Answer: 41%

Same assay, conditions: 15 µM compound + 500 nM PTX (Paclitaxel, Taxol); DU145-TXR; trial 2, sample 3

Question: Which “% Survival” value does the source give for `O=S(=O)(Cc1nc2ccccc2n1CC(O)c1ccc(Cl)cc1)c1ccccc1` (stereo not shown) [Compound 97, OC(Cn1c(CS(=O)(=O)c2ccccc2)nc2ccccc12)c1ccc(Cl)cc1] here?
Answer: 30%

Same assay, conditions: 15 µM compound + 500 nM PTX (Paclitaxel, Taxol); DU145-TXR; trial 2, sample 4

Question: How did the “% Survival” value turn out when `O=S(=O)(Cc1nc2ccccc2n1CC(O)c1ccc(Cl)cc1)c1ccccc1` (stereo not shown) [Compound 97, OC(Cn1c(CS(=O)(=O)c2ccccc2)nc2ccccc12)c1ccc(Cl)cc1] was run?
Answer: 42%

Same assay, conditions: 15 µM compound with or without 500 nM PTX, 48 h, MTT; re-sensitization = 30% or greater decrease in cell viability

Question: With `O=S(=O)(Cc1nc2ccccc2n1CC(O)c1ccc(Cl)cc1)c1ccccc1` (stereo not shown) [Compound 97, OC(Cn1c(CS(=O)(=O)c2ccccc2)nc2ccccc12)c1ccc(Cl)cc1] as the molecule, how does the “Re-sensitization of DU145-TXR cells to PTX (reversal of MDR)” value read?
Answer: re-sensitized DU145-TXR cells to PTX

Same assay, conditions: Homo sapiens, 15 µM Compound Alone; DU145-TXR; mean of 8 samples; read-out: % Survival, mean

Question: Which viability at 15 µM does the source give for `O=S(=O)(Cc1nc2ccccc2n1CC(O)c1ccc(Cl)cc1)c1ccccc1` (stereo not shown) [Compound 97, OC(Cn1c(CS(=O)(=O)c2ccccc2)nc2ccccc12)c1ccc(Cl)cc1] here?
Answer: 87.2%

Same assay, conditions: Homo sapiens, 15 µM Compound Alone; DU145-TXR; trial 1, sample 1; read-out: % Survival

Question: How did the viability at 15 µM turn out when `O=S(=O)(Cc1nc2ccccc2n1CC(O)c1ccc(Cl)cc1)c1ccccc1` (stereo not shown) [Compound 97, OC(Cn1c(CS(=O)(=O)c2ccccc2)nc2ccccc12)c1ccc(Cl)cc1] was run?
Answer: 107%

Same assay, conditions: Homo sapiens, 15 µM Compound Alone; DU145-TXR; trial 1, sample 2; read-out: % Survival

Question: How did the viability at 15 µM turn out when `O=S(=O)(Cc1nc2ccccc2n1CC(O)c1ccc(Cl)cc1)c1ccccc1` (stereo not shown) [Compound 97, OC(Cn1c(CS(=O)(=O)c2ccccc2)nc2ccccc12)c1ccc(Cl)cc1] was run?
Answer: 82%

Same assay, conditions: Homo sapiens, 15 µM Compound Alone; DU145-TXR; trial 1, sample 3; read-out: % Survival

Question: How did the viability at 15 µM turn out when `O=S(=O)(Cc1nc2ccccc2n1CC(O)c1ccc(Cl)cc1)c1ccccc1` (stereo not shown) [Compound 97, OC(Cn1c(CS(=O)(=O)c2ccccc2)nc2ccccc12)c1ccc(Cl)cc1] was run?
Answer: 82%

Same assay, conditions: Homo sapiens, 15 µM Compound Alone; DU145-TXR; trial 1, sample 4; read-out: % Survival

Question: Which viability at 15 µM does the source give for `O=S(=O)(Cc1nc2ccccc2n1CC(O)c1ccc(Cl)cc1)c1ccccc1` (stereo not shown) [Compound 97, OC(Cn1c(CS(=O)(=O)c2ccccc2)nc2ccccc12)c1ccc(Cl)cc1] here?
Answer: 83%

Same assay, conditions: Homo sapiens, 15 µM Compound Alone; DU145-TXR; trial 2, sample 1; read-out: % Survival

Question: How did the viability at 15 µM turn out when `O=S(=O)(Cc1nc2ccccc2n1CC(O)c1ccc(Cl)cc1)c1ccccc1` (stereo not shown) [Compound 97, OC(Cn1c(CS(=O)(=O)c2ccccc2)nc2ccccc12)c1ccc(Cl)cc1] was run?
Answer: 77%

Same assay, conditions: Homo sapiens, 15 µM Compound Alone; DU145-TXR; trial 2, sample 2; read-out: % Survival

Question: For `O=S(=O)(Cc1nc2ccccc2n1CC(O)c1ccc(Cl)cc1)c1ccccc1` (stereo not shown) [Compound 97, OC(Cn1c(CS(=O)(=O)c2ccccc2)nc2ccccc12)c1ccc(Cl)cc1], which viability at 15 µM is on record?
Answer: 89%

Same assay, conditions: Homo sapiens, 15 µM Compound Alone; DU145-TXR; trial 2, sample 3; read-out: % Survival

Question: Which viability at 15 µM does the source give for `O=S(=O)(Cc1nc2ccccc2n1CC(O)c1ccc(Cl)cc1)c1ccccc1` (stereo not shown) [Compound 97, OC(Cn1c(CS(=O)(=O)c2ccccc2)nc2ccccc12)c1ccc(Cl)cc1] here?
Answer: 88%

Same assay, conditions: Homo sapiens, 15 µM Compound Alone; DU145-TXR; trial 2, sample 4; read-out: % Survival

Question: How did the viability at 15 µM turn out when `O=S(=O)(Cc1nc2ccccc2n1CC(O)c1ccc(Cl)cc1)c1ccccc1` (stereo not shown) [Compound 97, OC(Cn1c(CS(=O)(=O)c2ccccc2)nc2ccccc12)c1ccc(Cl)cc1] was run?
Answer: 90%
